Data from ChEMBL document CHEMBL1201862, “PubChem BioAssay data set” (2004).
Activity calls are given as the source filed them.

Columns and labels:
[1] = molecular target: Kallikrein-7 (Homo sapiens, UniProt P49862); assay: Fluorescence Intensity-based biochemical primary high throughput dose response assay to identify activators of kallikrein-7 (K7) zymogen.
[2] = human group III sPLA2 inhibitors, dose response, biochemical, QFRET, IC50 (AID 743457);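 also: green fluorescence rise as the enzyme cleaves BODIPY PC-A2 in liposomes; potency for inhibition of the enzyme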
[3] = tested on: INS1; assay: beta cell apoptosis inhibitors, cytokine rescue, dose response, luminescence, retest (AID 449756); type: functional, cell-based; conditions: Rattus norvegicus;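 also: cell death triggered by IL-1 beta plus TNF-alpha plus IFN-gamma mixture; protective hits raise ATP signal compared with cytokine alone wells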
[4] = cells; type: functional, cell-based
[5] = tested on: Streptococcus sp. 'group A'; assay: growth inhibition of control SK(-) GAS strain, dose response, counter-screen for streptokinase expression inhibitor project, luminescence, kanamycin, BacTiterGlo, confirmation (AID 1900); type: functional, organism-based
[6] = tested on: Streptococcus; assay: Group A Streptococcus viability loss, dose response, counter-screen for streptokinase expression inhibitor project, luminescence, BacTiterGlo (AID 1915); type: functional, organism-based;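 also: potency for reduction of bacterial viability or growth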
[7] = cells; type: functional, cell-based; remark: listed apart in the source
[8] = molecular target: Paired box protein Pax-8 (Homo sapiens, UniProt Q06710); assay: inhibitors of PAX8-driven TPO luciferase reporter, dose response, RMG-I cells, cherry-pick (AID 687027); type: functional, cell-based;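 also: luciferase reporter driven by Pax8 target thyroperoxidase promoter measured by SteadyGlo luminescence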
[9] = cytotoxicity in OV-90 ovarian cancer cells, dose response, PAX8 inhibitor project, cell-based, plate reader, dry powder, SA8 (AID 743149); type: functional
[10] = cytotoxicity in COV362 ovarian cancer cells, dose response, cytotoxicity control for PAX8 inhibitor project, cell-based, plate reader, dry powder, SA12 (AID 743144); type: functional
[11] = cytotoxicity in COV434 cells, dose response, cytotoxicity control for PAX8 inhibitor project, cell-based, plate reader, dry powder, SA7 (AID 743145); type: functional
[12] = cytotoxicity in OVCAR4 cells, dose response, cytotoxicity control for PAX8 inhibitor project, cell-based, plate reader, dry powder, SA11 (AID 743150); type: functional; conditions: OVCAR-4
[13] = molecular target: Endoplasmic reticulum aminopeptidase 1 (Homo sapiens, UniProt Q9NZ08); assay: ERAP1 aminopeptidase inhibitors, dose response, biochemical, cherry-pick, set 2, plate reader (AID 743314)
[14] = molecular target: Tyrosyl-DNA phosphodiesterase 2 (Homo sapiens, UniProt O95551); assay: human TDP2 enzyme inhibitors, dose response, biochemical, epi absorbance, IC50 (AID 743297)
[15] = NIH:OVCAR-3 ovarian cancer cell cytotoxicity, dose response, PAX8 inhibitor project, plate reader, dry powder samples (AID 743044); type: functional, cell-based
[16] = non-specific cell cytotoxicity, dose response, cytotoxicity control for PAX8 inhibitor project, plate reader, dry powder samples (AID 743021); type: functional, cell-based
[17] = IOSE-T80 ovarian epithelial cell cytotoxicity, dose response, cytotoxicity control for PAX8 inhibitor project, plate reader, dry powder samples (AID 743045); type: functional, cell-based
[18] = IGROV1 ovarian cancer cell cytotoxicity, dose response, PAX8 inhibitor project, plate reader, dry powder samples (AID 743043); type: functional, cell-based; conditions: IGROV-1
[19] = inhibitors of CMV-promoter luciferase reporter, dose response, counter-screen for Pax8 inhibitor project, cell-based, HEK293, luminescence, dry powder (AID 743020); type: functional
[20] = cytotoxicity in OVCAR8 ovarian cancer cells, dose response, PAX8 project, cell-based, plate reader, dry powder samples (AID 743197); type: functional; conditions: OVCAR-8
[21] = A2780 ovarian cancer cell cytotoxicity, dose response, cytotoxicity control, plate reader, dry powder samples (AID 743046); type: functional, cell-based
[22] = HEK293T cytotoxicity, dose response, cytotoxicity control for miR-122 modulator project, cell-based, inhibitor set, cherry-pick, set 2 (AID 720697); type: functional
[23] = molecular target: T1, Sentrin-specific protease 6 (Homo sapiens, UniProt Q9GZR1); type: functional;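 also: Luminescence-based dose-response confirmatory assay of SENP6 inhibition, following up an ultra-high-throughput screen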
T1 sequence (Q9GZR1 whole entry): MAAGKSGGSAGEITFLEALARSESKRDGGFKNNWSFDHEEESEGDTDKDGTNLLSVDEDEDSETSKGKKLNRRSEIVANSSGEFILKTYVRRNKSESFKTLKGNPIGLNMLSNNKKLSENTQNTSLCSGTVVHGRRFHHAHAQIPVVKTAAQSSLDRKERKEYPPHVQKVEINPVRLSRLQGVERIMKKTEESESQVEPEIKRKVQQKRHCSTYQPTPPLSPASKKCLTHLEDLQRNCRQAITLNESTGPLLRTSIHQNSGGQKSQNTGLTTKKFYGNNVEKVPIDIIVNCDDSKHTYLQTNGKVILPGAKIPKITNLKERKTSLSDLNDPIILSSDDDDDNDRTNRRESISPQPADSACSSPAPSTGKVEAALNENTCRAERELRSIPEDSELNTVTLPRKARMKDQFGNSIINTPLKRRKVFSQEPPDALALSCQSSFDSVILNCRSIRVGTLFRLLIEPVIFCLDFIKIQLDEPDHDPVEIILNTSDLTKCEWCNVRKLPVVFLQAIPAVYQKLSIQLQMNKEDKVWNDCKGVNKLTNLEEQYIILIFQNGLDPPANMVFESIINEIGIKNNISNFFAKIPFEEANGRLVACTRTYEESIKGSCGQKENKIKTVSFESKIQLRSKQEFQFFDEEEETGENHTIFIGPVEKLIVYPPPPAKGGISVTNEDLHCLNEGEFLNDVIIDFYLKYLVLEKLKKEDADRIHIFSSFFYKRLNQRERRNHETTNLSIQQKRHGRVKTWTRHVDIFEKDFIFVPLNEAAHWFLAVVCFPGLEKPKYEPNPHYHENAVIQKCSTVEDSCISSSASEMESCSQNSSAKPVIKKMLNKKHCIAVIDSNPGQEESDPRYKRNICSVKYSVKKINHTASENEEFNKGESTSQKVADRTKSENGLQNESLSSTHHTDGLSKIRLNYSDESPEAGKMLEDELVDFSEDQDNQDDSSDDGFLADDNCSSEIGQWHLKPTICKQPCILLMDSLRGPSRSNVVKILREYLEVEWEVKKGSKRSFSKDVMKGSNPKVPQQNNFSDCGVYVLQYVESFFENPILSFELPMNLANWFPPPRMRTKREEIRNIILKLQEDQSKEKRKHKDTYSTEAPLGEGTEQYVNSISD

[24] = molecular target: T2, Sentrin-specific protease 8 (Homo sapiens, UniProt Q96LD8); type: functional;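 also: luminescence read-out of SENP8 inhibition, dose-response confirmation following an ultra-high-throughput screen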
T2 sequence (Q96LD8 whole entry): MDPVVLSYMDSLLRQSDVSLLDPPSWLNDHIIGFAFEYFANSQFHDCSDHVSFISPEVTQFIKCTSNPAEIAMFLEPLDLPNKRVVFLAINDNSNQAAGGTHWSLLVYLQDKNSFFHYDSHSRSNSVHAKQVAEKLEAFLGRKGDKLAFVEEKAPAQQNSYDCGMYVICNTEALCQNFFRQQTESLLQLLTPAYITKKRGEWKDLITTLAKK

[25] = Luminescence Cell-Based Dose Confirmation HTS to Identify Inhibitors of Platelet Dense Granule Release. [Related pubchem assays: 1663 (Primary HTS), 1678 (Summary of Project)]; type: functional
[26] = molecular target: Luciferin 4-monooxygenase (Photinus pyralis, UniProt P08659); assay: firefly luciferase enzyme inhibitors, dose response, biochemical, luminescence (AID 1891)
[27] = molecular target: T3, Probable nicotinate-nucleotide adenylyltransferase (Staphylococcus aureus (strain N315), UniProt P65502); type: functional, Staphylococcus aureus subsp. aureus N315; conditions: read-out: IC50_Mean;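 as to IC50 Mean: confirmatory dose-response retesting of NadD inhibitor hits first found in an ultra-high-throughput screen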
[28] = molecular target: T4, Caspase-3 (Homo sapiens, UniProt P42574); type: functional;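 also: Dose-response selectivity test against caspase-3 for candidate inhibitors of sentrin-specific proteases (SENPs)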
T4 sequence (P42574 whole entry): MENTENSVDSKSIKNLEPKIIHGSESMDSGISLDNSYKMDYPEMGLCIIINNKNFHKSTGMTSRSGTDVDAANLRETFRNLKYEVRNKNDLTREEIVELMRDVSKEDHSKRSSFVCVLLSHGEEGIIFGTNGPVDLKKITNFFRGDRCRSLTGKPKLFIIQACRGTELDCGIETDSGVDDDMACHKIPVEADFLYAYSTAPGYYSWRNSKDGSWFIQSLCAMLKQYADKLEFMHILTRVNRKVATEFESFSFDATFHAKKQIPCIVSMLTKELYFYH

[29] = molecular target: T5, Sentrin-specific protease 7 (Homo sapiens, UniProt Q9BQF6); type: functional;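 also: Luminescence-based dose-response confirmation of ultra-high-throughput screening hits, measuring inhibition of SENP7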
T5 sequence (Q9BQF6 whole entry): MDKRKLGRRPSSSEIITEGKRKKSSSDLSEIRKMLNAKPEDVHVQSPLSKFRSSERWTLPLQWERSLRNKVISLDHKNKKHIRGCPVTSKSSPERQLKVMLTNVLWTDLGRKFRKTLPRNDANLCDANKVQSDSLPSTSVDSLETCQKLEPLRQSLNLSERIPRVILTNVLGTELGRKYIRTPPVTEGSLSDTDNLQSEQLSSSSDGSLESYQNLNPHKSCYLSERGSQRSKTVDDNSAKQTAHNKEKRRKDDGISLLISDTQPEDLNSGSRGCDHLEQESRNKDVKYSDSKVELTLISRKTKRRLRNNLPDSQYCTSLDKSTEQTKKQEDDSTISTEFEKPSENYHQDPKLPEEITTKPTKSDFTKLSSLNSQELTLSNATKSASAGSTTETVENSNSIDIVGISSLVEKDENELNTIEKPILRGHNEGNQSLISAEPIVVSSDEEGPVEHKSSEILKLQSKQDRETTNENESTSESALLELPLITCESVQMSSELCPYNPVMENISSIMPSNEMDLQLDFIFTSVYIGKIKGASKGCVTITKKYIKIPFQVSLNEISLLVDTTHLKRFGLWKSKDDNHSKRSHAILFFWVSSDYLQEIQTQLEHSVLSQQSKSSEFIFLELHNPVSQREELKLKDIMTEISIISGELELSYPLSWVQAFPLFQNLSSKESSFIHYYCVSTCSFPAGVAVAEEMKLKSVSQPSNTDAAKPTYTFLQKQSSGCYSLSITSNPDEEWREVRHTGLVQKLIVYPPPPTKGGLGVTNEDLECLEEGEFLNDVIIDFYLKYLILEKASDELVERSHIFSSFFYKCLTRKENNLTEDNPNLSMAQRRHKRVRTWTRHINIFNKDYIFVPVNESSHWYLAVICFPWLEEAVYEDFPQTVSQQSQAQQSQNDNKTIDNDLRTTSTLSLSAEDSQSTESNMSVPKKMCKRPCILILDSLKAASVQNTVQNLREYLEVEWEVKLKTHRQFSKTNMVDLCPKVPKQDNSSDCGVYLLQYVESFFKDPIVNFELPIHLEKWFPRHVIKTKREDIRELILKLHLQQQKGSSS

[30] = molecular target: T3, Probable nicotinate-nucleotide adenylyltransferase; type: functional, Staphylococcus aureus subsp. aureus N315

Chain of Endoplasmic reticulum aminopeptidase 1 (Q9NZ08 whole entry): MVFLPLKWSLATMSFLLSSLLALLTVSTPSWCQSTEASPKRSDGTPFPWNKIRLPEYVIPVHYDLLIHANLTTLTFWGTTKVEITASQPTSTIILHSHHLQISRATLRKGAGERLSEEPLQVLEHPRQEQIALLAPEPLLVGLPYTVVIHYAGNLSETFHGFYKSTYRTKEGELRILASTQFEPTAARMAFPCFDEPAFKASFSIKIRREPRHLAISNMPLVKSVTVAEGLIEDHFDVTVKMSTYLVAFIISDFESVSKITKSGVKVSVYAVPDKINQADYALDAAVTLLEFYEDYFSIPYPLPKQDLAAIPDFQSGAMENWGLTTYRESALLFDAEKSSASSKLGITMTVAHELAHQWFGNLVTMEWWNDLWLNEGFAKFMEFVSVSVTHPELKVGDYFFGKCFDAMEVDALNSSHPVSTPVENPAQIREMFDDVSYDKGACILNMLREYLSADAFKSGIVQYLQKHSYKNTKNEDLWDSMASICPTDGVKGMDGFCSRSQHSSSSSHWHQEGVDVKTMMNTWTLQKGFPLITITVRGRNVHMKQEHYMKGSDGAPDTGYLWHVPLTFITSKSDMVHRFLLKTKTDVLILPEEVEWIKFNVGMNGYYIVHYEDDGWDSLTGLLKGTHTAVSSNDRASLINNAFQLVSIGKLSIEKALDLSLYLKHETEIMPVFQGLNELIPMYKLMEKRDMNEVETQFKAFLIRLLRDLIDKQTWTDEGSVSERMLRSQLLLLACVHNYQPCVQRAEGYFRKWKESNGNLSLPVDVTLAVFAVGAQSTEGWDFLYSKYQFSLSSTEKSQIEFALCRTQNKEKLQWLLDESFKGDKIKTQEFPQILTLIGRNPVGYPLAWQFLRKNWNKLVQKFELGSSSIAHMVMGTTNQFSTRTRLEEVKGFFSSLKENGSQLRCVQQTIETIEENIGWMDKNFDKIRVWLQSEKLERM
T3 sequence (P65502 whole entry): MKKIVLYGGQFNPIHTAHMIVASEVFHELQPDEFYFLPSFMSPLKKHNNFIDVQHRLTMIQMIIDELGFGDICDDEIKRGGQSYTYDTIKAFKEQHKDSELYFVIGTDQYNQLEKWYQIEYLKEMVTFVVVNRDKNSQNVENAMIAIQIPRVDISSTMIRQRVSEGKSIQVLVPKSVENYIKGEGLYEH
Chain of Paired box protein Pax-8 (Q06710 whole entry): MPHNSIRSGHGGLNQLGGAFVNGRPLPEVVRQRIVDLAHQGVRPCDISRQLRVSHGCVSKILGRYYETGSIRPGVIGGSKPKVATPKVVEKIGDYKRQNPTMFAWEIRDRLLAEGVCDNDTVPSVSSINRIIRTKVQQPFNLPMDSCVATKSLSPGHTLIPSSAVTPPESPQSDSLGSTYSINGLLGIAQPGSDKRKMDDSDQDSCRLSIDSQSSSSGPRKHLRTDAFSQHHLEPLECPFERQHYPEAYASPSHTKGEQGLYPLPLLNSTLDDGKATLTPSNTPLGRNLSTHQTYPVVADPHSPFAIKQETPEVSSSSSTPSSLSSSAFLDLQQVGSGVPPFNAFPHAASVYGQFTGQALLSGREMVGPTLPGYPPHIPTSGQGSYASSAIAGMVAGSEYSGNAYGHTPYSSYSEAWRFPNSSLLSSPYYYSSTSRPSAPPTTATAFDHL
Chain of Tyrosyl-DNA phosphodiesterase 2 (O95551 whole entry): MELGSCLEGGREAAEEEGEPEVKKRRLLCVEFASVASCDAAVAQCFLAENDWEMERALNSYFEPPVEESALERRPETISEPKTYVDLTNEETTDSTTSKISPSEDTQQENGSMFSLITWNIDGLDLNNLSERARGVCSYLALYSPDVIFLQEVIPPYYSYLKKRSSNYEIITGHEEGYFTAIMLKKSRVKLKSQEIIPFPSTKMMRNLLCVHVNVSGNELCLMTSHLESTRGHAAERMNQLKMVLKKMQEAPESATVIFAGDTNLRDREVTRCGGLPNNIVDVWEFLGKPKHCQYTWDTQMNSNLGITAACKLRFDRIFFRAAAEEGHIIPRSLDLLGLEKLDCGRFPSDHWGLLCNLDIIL
Chain of Kallikrein-7 (P49862 whole entry): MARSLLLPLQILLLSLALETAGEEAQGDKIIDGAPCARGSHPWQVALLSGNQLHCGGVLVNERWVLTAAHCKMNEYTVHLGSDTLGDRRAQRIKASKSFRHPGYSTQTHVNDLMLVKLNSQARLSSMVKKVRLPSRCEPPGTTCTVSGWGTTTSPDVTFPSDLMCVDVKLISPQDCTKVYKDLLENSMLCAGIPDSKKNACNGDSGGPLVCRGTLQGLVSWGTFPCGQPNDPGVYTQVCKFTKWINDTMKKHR
Chain of Luciferin 4-monooxygenase (P08659 whole entry): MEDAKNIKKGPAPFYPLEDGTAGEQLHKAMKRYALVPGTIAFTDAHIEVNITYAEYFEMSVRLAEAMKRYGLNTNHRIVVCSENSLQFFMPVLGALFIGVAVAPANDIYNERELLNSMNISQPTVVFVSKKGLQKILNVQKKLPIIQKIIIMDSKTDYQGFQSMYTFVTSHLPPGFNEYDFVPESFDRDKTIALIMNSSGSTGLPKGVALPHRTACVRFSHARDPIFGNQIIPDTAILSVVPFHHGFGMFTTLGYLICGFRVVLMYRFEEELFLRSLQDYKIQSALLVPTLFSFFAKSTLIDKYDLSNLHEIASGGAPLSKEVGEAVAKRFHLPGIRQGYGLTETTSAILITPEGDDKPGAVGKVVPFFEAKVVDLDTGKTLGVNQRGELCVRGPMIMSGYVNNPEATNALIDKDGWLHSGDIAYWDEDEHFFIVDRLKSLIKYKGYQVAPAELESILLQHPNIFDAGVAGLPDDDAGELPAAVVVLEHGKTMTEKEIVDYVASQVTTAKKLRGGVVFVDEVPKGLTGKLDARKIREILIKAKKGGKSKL

With COc1cc2ccccc2cc1C(=O)OCC(=O)N1CCOCC1 the EC50 [1] was > 69.5 µM (inactive).

In the case of Cc1ccn2c(Nc3ccccc3C)c(-c3ccccn3)nc2c1, the IC50 [2] was 67.9 µM (inactive), the AC50 [3] was 5.32 µM (active) and the EC50 [4] was > 350 µM (not active). The EC50 [5] was 2.75 µM (active), the EC50 [6] was 6.24 µM (active) and the EC50 [7] was 146 µM (active).

For Cc1cccc(N=C(S)NNC(=O)c2ccc(O)cc2O)c1C, the IC50 [2] was > 122 µM (inactive).

With CN1CC(=O)N2C(c3ccc(Cl)cc3)c3[nH]c4ccccc4c3C[C@H]2C1=O (stereo partly drawn) the AC50 [8] was 10.3 µM (active), the AC50 [9] was > 100 µM (inactive) and the AC50 [10] was 9.73 µM (active). The AC50 [11] was 21.4 µM (active) and the AC50 [12] was 10.3 µM (active).

For Cc1cc(=O)oc2c(CN3CCCC3)c(O)c(Cl)cc12, the AC50 [13] was 5.76 µM (active).

In the case of Nc1c2c(O)nc(O)cc2nn1-c1ccccc1, the IC50 [14] was 79.9 µM (inactive).

In the case of C[C@@H]1CN([C@H](C)CO)C(=O)c2cc(NS(=O)(=O)c3ccc(Cl)cc3)ccc2O[C@@H](C)CCCCO[C@H]1CN(C)Cc1ccc(C(F)(F)F)cc1, the AC50 [8] was 6.62 µM (active), the AC50 [15] was 10.6 µM (active) and the AC50 [16] was 3.68 µM (active). The AC50 [17] was 20.2 µM (active), the AC50 [18] was 21.3 µM (active) and the AC50 [19] was 31.8 µM (active). For the same molecule, the AC50 [20] was 21.6 µM (active) and the AC50 [21] was 10.8 µM (active).

With CCC(=O)N(C)C[C@H]1Oc2ncc(C#Cc3ccncc3)cc2C(=O)N([C@H](C)CO)C[C@H]1C the AC50 [13] was 2.92 µM (active).

For COc1cccc(OCc2cc(/C=N/Nc3ccc(C(=O)O)cc3)ccc2OC)c1, the AC50 [22] was 7.48 µM (active), the IC50 [23] was 6.91 µM (active) and the IC50 [24] was 15.7 µM (active). For the same molecule, the EC50 [25] was 84.7 µM (active), the EC50 [26] was 4.64 µM (active) and the IC50 [27] was 25.5 µM (active). For the same molecule, the IC50 [28] was 22.4 µM (active), the IC50 [29] was 8.85 µM (active) and the IC50 [30] was 7.37 µM (active).
